Measurements reported in US20080300298A1, “Honokiol Derivates For the Treatment of Proliferative Disorders” (priority 2005, published 2008).
Like-named read-outs stand apart in the source and are kept apart here.

What was measured:
HIV-1 = assay: HIV assay in PBM cells (RT activity); type: cell-based; conditions: Human immunodeficiency virus 1, PBMC, HIV-1 in human PBM cells; for EC50: read-out: Activity anti-VIH-1 on PBM cells EC50; for EC90: read-out: Activity anti-VIH-1 on PBM cells EC90
Description: The antiviral activity of the synthesized compounds and honokiol were evaluated against HIV-1 in human peripheral blood mononuclear (PBM) cells (Table 4).
Human peripheral blood mononuclear (PBM) cells (which can be obtained from Atlanta Red Cross) can be isolated by Ficoll-Hypaque discontinuous gradient centrifugation from healthy seronegative donors. Cells can be stimulated with phytohemagglutinin A (Difco, Sparks, Md.) for 2-3 days prior to use. HIV-1, such as HIV-1LAI can be obtained from the Centers for Disease Control and Prevention (Atlanta, Ga.), and can be used as the standard reference virus for the antiviral assays. The molecular infectious clones HIV-1xxBru and HIV-1M184Vpin can be obtained from Dr. John Mellors (University of Pittsburgh). Infections can be done in bulk for one hour, either with 100 TCID50/1×10^7 cells for a flask (T25) assay or with 200 TCID50/6×10^5 cells/well for a 24 well plate assay. Cells can be added to a plate or flask containing a ten-fold serial dilution of the test compound. Assay medium can be RPMI-1640 supplemented with heat inactivated 16% fetal bovine serum, 1.6 mM L-glutamine, 80 IU/ml penicillin, 80 μg/ml streptomycin, 0.0008% DEAE-Dextran, 0.045% sodium bicarbonate, and 26 IU/ml recombinant interleukin-2 (Chiron Corp, Emeryville, Calif.). AZT can be used as a positive control for the assay. Untreated and uninfected PBM cells can be grown in parallel at equivalent cell concentrations as controls. The cell cultures can be maintained in a humidified 5% CO2-air at 37° C. for 5 days and supernatants can be collected for reverse transcriptase (RT) activity.
Supernatants can be centrifuged at 12,000 rpm for 2 hours to pellet the virus. The pellet can be solubilized with vortexing in 100 μl virus solubilization buffer (VSB) containing 0.5% Triton X-100, 0.8 M NaCl, 0.5 mM phenylmethylsulfonyl fluoride, 20% glycerol, and 0.05 M Tris, pH 7.8. Ten μL of each sample can be added to 75 μL RT reaction mixture (0.06 M Tris, pH 7.8, 0.012 M MgCl2, 0.006 M dithiothreitol, 0.006 mg/ml poly (rA)n, oligo (dT)12-18, 96 μg/ml dATP, and 1 μM of 0.08 mCi/ml ^3H-thymidine triphosphate (Moravek Biochemicals, Brea, Calif.) and can be incubated at 37° C. for 2 hours. The reaction can be stopped by the addition of 100 μL 10% trichloroacetic acid containing 0.05% sodium pyrophosphate. The acid insoluble product can be harvested onto filter paper using a Packard Harvester (Meriden, Conn.), and the RT activity can be read on a Packard Direct Beta Counter (Meriden, Conn.). The RT results can be expressed in counts per minute (CPM) per milliliter. The antiviral 50% effective concentration (EC50) and 90% effective concentration (EC90) can be determined from the concentration-response curve using the median effect method (Belen'kii, S. M.; Schinazi, R. S. Multiple drug effect analysis with confidence interval. Antiviral. Res. 1994, 25, 1-11).

cytotoxicity assay (MTT) [1] = type: cell-based, human; conditions: human
Description: (§1) The cytotoxicity of the honokiol and analogues thereof were assessed in human PBM, CEM and Vero cells (Table 4). Compounds can be evaluated for their potential toxic effects on uninfected human PBM cells, in CEM (T-lymphoblastoid cell line obtained from American Type Culture Collection, Rockville, Md.) and Vero (African green monkey kidney) cells. PBM cells can be obtained from whole blood of healthy seronegative donors (HIV-1) by single-step Ficoll-Hypaque discontinous gradient centrifugation. […] All of the cells can be plated in 96-well cell culture plates containing ten-fold serial dilutions of the test drug. […] At the end of incubation, MTT tetrazolium dye solution (Cell titer 96®, Promega, Madison, Wis.) can be added to each well and incubated overnight. The reaction can be stopped with stop solubilization solution (Promega, Madison, Wis.). […] The plates can be read at a wavelength of 570 nm using an ELISA plate reader (Bio-tek instruments, Inc., Winooski, Vt., Model #EL 312e). The 50% inhibition concentration (IC50) can be determined from the concentration-response curve using the median effect method.

cytotoxicity assay (MTT) [2] = type: cell-based; conditions: for EC50 at 3 days: African green monkey; for EC50 at 4 days: human
Description: as §1

[3] = system: SVR (a transformed endothelial cell line); assay: SVR cellular proliferation assay; type: cell-based; conditions: Mus musculus, SVR cells; for inhibition at 10 µg/mL: 10 μg/mL; for inhibition at 15 µg/mL: 15 μg/mL
Description: The SVR (a transformed endothelial cell line) proliferation assay can be used as a direct measure of antiangiogenic and antitumor activity. This assay serves as a high throughput screen that compares the effects of a compound on proliferation of SVR cells versus an immortalized endothelial cell line, MS1. […] SVR cells were plated in 24-well dishes. The next day, the medium was replaced with fresh medium containing the inhibitors or vehicle controls. Cells were incubated at 37° C. for 72 h (Arbiser, J. L., et al. 1999 J. Am. Acad. Dermatol. 40, 925-929; LaMontagne, K. R., et al. 2000 Am. J. Pathol. 157, 1937-1945), and cell number was determined in triplicate using a Coulter Counter (Hialeah, Fla.). Immortalized and K-Ras transformed rat epithelial cells (RIEpZip and […]) and fibroblasts (NIH3T3 pZip and NIH3T3 pZipK-Ras12V) were maintained at 37° C., 10% CO2, in Dulbecco's modified Eagle's medium supplemented with 5% fetal calf serum (RIE) or 10% calf serum (NIH3T3) (Oldham, S. M., et al. 1996 Proc. Natl. Acad. Sci. U.S.A. 93, 6924-6928; Pruitt, K., et al. 2000 J. Biol. Chem. 275, 40916-40924). Cells were plated at 10^5/well in six-well plates.

[4] = toxicity in mice (Table 5); conditions: mouse, in vivo
From the text: In vivo models of cancer growth include xenografts of human tumor cells injected into animals, such as mice, particularly immunocomprimised mice. Toxicity of the compounds can also be assessed in these assays through daily administration of the compounds to the animals combined with daily monitoring of the animals. The animals can also be monitored for two weeks to look for weight loss, as well as other common toxicities known to one skilled in the art, such as altered grooming, decreased movement of mice, and tremor. The compounds can also be tested for their ability to inhibit tumor growth in animals. SVR angiosarcoma tumor cells, for example, can be injected into animals, such as immunocompromised mice. Mice can be injected with approximately one million SVR cells subcutaneously, and when tumors become palpable, can be treated with a beginning dose (such as 120 mg/kg intraperitoneally) once daily. Drugs that are active at 120 mg/kg can then be retested at lower doses of 80 mg/kg, 40 mg/kg, etc. Tumor volume can be calculated using the formula (w2×L)0.52, where w (width) represents the smallest dimension of the tumor. Mice can be treated for a period of time such as approximately 30 days, or until tumor growth reaches 1 cm^3.

[5] = uninfected PBM cells, read-out: Cytotoxicity (EC50-μM) in: PBM
[6] = Vero cells, read-out: Cytotoxicity (EC50-μM) in: VERO
[7] = CEM cells, read-out: Cytotoxicity (EC50-μM) in: CEM
[8] = Vero kidney cells, Vero cells, read-out: Cytotoxicity (EC50-μM) in: VERO
[9] = CEM T-lymphoblastoid cells, CEM cells, read-out: Cytotoxicity (EC50-μM) in: CEM

Row | SMILES | inhibition at 10 µg/mL [3] [%] | inhibition at 15 µg/mL [3] [%] | also measured
1 | C=CCc1ccc(O)c(-c2cc(CC=C)ccc2O)c1 |  |  | EC50 (HIV-1): 69.3 µM; EC90 (HIV-1): > 100 µM; EC50 at 5 days (cytotoxicity assay (MTT) [1]; [5]): 38.6 µM; EC50 at 3 days (cytotoxicity assay (MTT) [2]; [6]): 79.9 µM; EC50 at 4 days (cytotoxicity assay (MTT) [2]; [7]): 99.6 µM
2 | C=CCC1=C(CC=C)C(=O)c2ccccc2C1=O | 87.5 | 91.5 | Toxicity [4]: Toxic
3 | C=CCc1ccc(OS(=O)(=O)c2ccccc2)c(-c2ccc(OS(=O)(=O)c3ccccc3)c(CC=C)c2)c1 | 35.3 | 37.9 | 
4 | C=CCc1ccc(O)c(CC=C)c1O | 37.2 | 36 | 
5 | C=CCc1cc(-c2cccc(CC=C)c2O)ccc1O | 74.2 | 81.6 | 
6 | C=CCc1c(O)ccc2c3ccccc3n(CC=C)c12 | 69.7 | 78.7 | 
7 | C=CCc1cc2c3ccccc3n(CC=C)c2cc1O | 68.9 | 76.1 | 
8 | O=C(CCc1ccccc1)Oc1cc(OC(=O)CCc2ccccc2)cc(OC(=O)CCc2ccccc2)c1 | 5 | 25 | 
9 | C=CCc1cccc(-c2ccccc2O)c1O | 47.1 | 59.3 | 
10 | C=CCc1cc(Cc2ccc(O)c(CC=C)c2)ccc1O | 75.5 | 73.7 | Toxicity [4]: Toxic
11 | C=CCOc1ccc(/C=C/C(=O)CC(=O)/C=C/c2ccc(OCC=C)c(OC)c2)cc1OC | 70 | 67.9 | 
12 | C=CCOc1ccc(/C=C/C(=O)CC(=O)/C=C/c2ccc(O)c(OC)c2)cc1OC | 75.2 | 78.8 | 
13 | C=CCc1cc(/C(CC)=C(\CC)c2ccc(O)c(CC=C)c2)ccc1O | 68.4 | 89.3 | Toxicity [4]: Toxic
14 | O=C(/C=C/c1ccccc1)Oc1cc(OC(=O)/C=C/c2ccccc2)cc(OC(=O)/C=C/c2ccccc2)c1 | 13.4 | 8.6 | 
15 | C=CCc1cc(-c2ncc(O)cn2)ccc1O | 4.4 | 10 | 
16 | C=CCc1cc(C(C)(C)c2ccc(O)c(CC=C)c2)ccc1O | 32.9 | 57.1 | 

Row | SMILES | inhibition at 10 µg/mL [3] [%] | inhibition at 15 µg/mL [3] [%] | also measured
17 | C=CCOc1cc2c(cc1OCC=C)C1c3ccc(OCC=C)c(OCC=C)c3OCC1(O)C2 (stereo not drawn) | 13.8 | 41.8 | 
18 | C=CCc1cc(C(=C(Cl)Cl)c2ccc(O)c(CC=C)c2)ccc1O | 53.6 | 75.6 | 
19 | C=CCc1cc(C(c2ccc(O)c(CC=C)c2)c2ccccn2)ccc1O | 25.2 | 46.1 | 
20 | C=CCc1ccc2c(c1)-c1cc(CC=C)ccc1OC(C)(C)O2 [drawing 42] |  |  | EC50 (HIV-1): 13.6 µM; EC90 (HIV-1): 43.3 µM; EC50 at 5 days (cytotoxicity assay (MTT) [1]; [5]): 75.3 µM; EC50 at 3 days (cytotoxicity assay (MTT) [2]; [8]): > 100 µM; EC50 at 4 days (cytotoxicity assay (MTT) [2]; [9]): 11.6 µM
21 | C=CCc1ccc(O)c(-c2ccc(O)c(CC=C)c2)c1 [drawing 43] |  |  | EC50 (HIV-1): 3.3 µM; EC90 (HIV-1): 22.7 µM; EC50 at 5 days (cytotoxicity assay (MTT) [1]): 16.1 µM; EC50 at 3 days (cytotoxicity assay (MTT) [2]): 22.5 µM; EC50 at 4 days (cytotoxicity assay (MTT) [2]): 10.9 µM
22 | CCCc1ccc(O)c(-c2ccc(O)c(CCC)c2)c1 [drawing 44] |  |  | EC50 (HIV-1): 16.9 µM; EC90 (HIV-1): 69.4 µM; EC50 at 5 days (cytotoxicity assay (MTT) [1]; [5]): 45.9 µM; EC50 at 3 days (cytotoxicity assay (MTT) [2]; [8]): 19.8 µM; EC50 at 4 days (cytotoxicity assay (MTT) [2]; [9]): 10.4 µM
23 | C=CCc1ccc(OC)c(-c2ccc(OC)c(CC=C)c2)c1 [drawing 45] |  |  | EC50 (HIV-1): 54.3 µM; EC90 (HIV-1): > 100 µM; EC50 at 5 days (cytotoxicity assay (MTT) [1]; [5]): > 100 µM; EC50 at 3 days (cytotoxicity assay (MTT) [2]; [8]): > 100 µM; EC50 at 4 days (cytotoxicity assay (MTT) [2]; [9]): 19.1 µM
24 | C=CCc1cccc(-c2cccc(CC=C)c2O)c1O [drawing 46] |  |  | EC50 (HIV-1): 34.8 µM; EC90 (HIV-1): 63 µM; EC50 at 5 days (cytotoxicity assay (MTT) [1]; [5]): > 100 µM; EC50 at 3 days (cytotoxicity assay (MTT) [2]; [8]): > 100 µM; EC50 at 4 days (cytotoxicity assay (MTT) [2]; [9]): > 100 µM
25 | C=CCc1cc(-c2ccc(O)c(CC=C)c2)ccc1O [drawing 47] |  |  | EC50 (HIV-1): 19.4 µM; EC90 (HIV-1): 66.4 µM; EC50 at 5 days (cytotoxicity assay (MTT) [1]; [5]): > 100 µM; EC50 at 3 days (cytotoxicity assay (MTT) [2]; [6]): 33.2 µM; EC50 at 4 days (cytotoxicity assay (MTT) [2]; [7]): 23 µM
26 | C=CCc1ccc(O)c(-c2ccc(O)c(CC=C)c2)c1 [drawing 48] | 59.9 | 85 | 
27 | CCCc1ccc(O)c(-c2ccc(O)c(CCC)c2)c1 [drawing 49] | 79.2 | 89.6 | 
28 | C=CCc1cccc(-c2cccc(CC=C)c2O)c1O [drawing 50] | 40.8 | 57.2 | 
29 | C=CCc1ccc2c(c1)-c1cc(CC=C)ccc1OC(C)(C)O2 [drawing 54] | 61.9 | 59.7 | 
30 | C=CCc1ccc(OC)c(-c2ccc(OC)c(CC=C)c2)c1 [drawing 55] | 40.6 | 47.2 | 
31 | C=CCc1cc(-c2ccc(O)c(CC=C)c2)ccc1O [drawing 56] | 44.9 | 56.2 | Toxicity [4]: Toxic
